Measured values from patent US10881642B2, “Autophagy enhancer and use thereof” (Industry-Academic Cooperation Foundation, Yonsei University, priority 2016, dated 2021).

Columns and labels:
HeLa cells = test: GCaMP3-ML1 lysosomal Ca2+ release imaging; assay type: cell-based; conditions: GPN 200 μM; ionomycin 1 μM
Procedure: HeLa cells were transfected with perilysosomal GCaMP3-ML1 calcium probe, and Ratiometric image (474 and 410 nm excitation) was obtained.
GCaMP3 Ca2+ Imaging. HeLa cells were grown on 15 mm coverslips and transfected with plasmid encoding the perilysosomal-localized ML1-GCaMP3 calcium probes.

[1] = tested on: primary peritoneal macrophages; test: IL-1β ELISA / inflammasome activation in macrophages; assay type: cell-based, C57BL/6 mice
Procedure: FIG. 5 is the results indicating the present compound MSL reduces the activation of inflammasome and enhances the function of mitochondria. FIG. 5A is the results of the experiment in which primary peritoneal macrophages were isolated and treated with palmitic acid, LPS and MSL and then the concentration of IL-beta was measured from the supernatant using ELISA. Error bars, S.D. **, P<0.01; ***, P<0.001, two-way ANOVA. […]
Screening of autophagy enhancer. […] Firefly luciferase was determined after mixing 5 μl of lysate with 25 μl of Luciferase Assay Reagent II. Renilla luciferase was then determined after further addition of 20 ul of Stop&Glo Reagent. […] Cytotoxicity was determined by the measurement of LDH release in cell culture media using the LDH kit (Roche), according to the protocol from the manufacturer. […] Imaging and image quantification. […] Formation of acidic vesicular organelles was quantitated by staining the cells with acridine orange (Invitrogen, 5 ug/ml, 10 min). […] Cells or tissues were solubilized in lysis buffer supplemented with protease and phosphatase inhibitors and protein concentration was measured by the Bradford method. Ten to 30 micrograms were loaded on 4-12% Bis-Tris gel (NUPAGE, Invitrogen) or 8-15% SDS-PAGE, transferred to PVDF membranes and analyzed by western blot using the ECL method (Pierce). […]

## CSc1oc(-c2ccccc2)nc1S(=O)(=O)c1ccc(F)cc1 [MSL]
HeLa cells
  lysosomal Ca2+ release: no increase of lysosomal Ca2+ release
[1]; PA in combination with LPS
  release of IL-1β measured by ELISA: significantly decreased
[1]; data not shown
  caspase-1 cleavage and IL-1 β maturation (Western blot): decreased
